Experimental data: US5958885A, “Peptide and formulations thereof inhibiting elevations of triglyceride levels in blood” (Hankyu Kyoei Bussan Co., Ltd., priority 1996, dated 1999)
Residues, ends and D or L forms follow the SMILES beside them.

Key:
[1] = system: pepsin (artificial gastric juice); assay: In vitro stability against digestive enzymes, artificial gastric juice; assay type: in vitro ADME; settings: for Ratio of recovery: after pepsin in 0.1 N HCl, 37° C., 4 hr, HPLC peak area, before treatment = 100
Procedure: (§1) In vitro stability test against digestive enzymes was conducted on the peptide (VVYP) having the amino acid sequence shown in SEQ ID NO: 1 synthesized in Example 2 and peptides Val-Tyr-Pro (VYP) and Val-Thr-Leu (VTL) synthesized in the same manner as described in Example 2.
(§2) Briefly, to 127.5 ml of 0.1 N HCl solution of the above VVYP, VYP or VTL, 22.5 ml of 0.67 mg/ml pepsin (artificial gastric juice) dissolved in 0.1 N HCl was added and reacted at 37° C. for 4 hr. Thereafter, 75 ml of 0.53 mg/ml pancreatin (artificial pancreatic juice) dissolved in […] of 0.5 N borate buffer (pH 8.0) was added thereto and reacted at 37° C. for 2 hr. Samples before digestion with artificial gastric juice, after digestion with artificial gastric juice, and after digestion with artificial pancreatic juice were analyzed under the following conditions.
(§3) Equipment used: HPLC (Waters; LC Modulel)
(§4) Column: SuperPac Pep-S, 5 μm (PHARMACIA K.K.)
(§5) Mobile phase A: 0.1% trifluoroacetic acid B: Acetonitrile-water (50:50, containing 0.1% tri-fluoroacetic acid)
(§6) Flow rate: 0.8 ml/min (VYP, VTL), 0.4 ml/min (VVYP)
(§7) Detection wavelength: 220 nm
(§8) Temperature: room temperature
(§9) Amount applied: 20 μl of 50-fold dilution

serum TG levels = assay: Serum TG elevation inhibiting action, peptide given 1 hr after olive oil; assay type: in vivo, male ICR mice; settings: for ID50 (dose which inhibits in vivo 50% of serum TG elevations): olive oil 18 g/kg oral, peptide oral 1 hr later, serum TG another 1 hr later; for Specific Activity (ratio to mg protein): relative to globin proteolysate (GD) = 1, Table 3
Procedure: Subsequently, serum TG elevation inhibiting action was examined as described below on the peptide (VVYP) having the amino acid sequence shown in SEQ ID NO: 1 synthesized in Example 2, peptides Val-Tyr-Pro (vYP) and Val-Thr-Leu (VTL) synthesized in the same manner as described in Example 2, and the globin proteolysate (GD) obtained in the Reference Example.
Olive oil (18 g/kg body weight) was administered orally to male ICR mice (6 week old, body weight: 25-28 g) which fasted for an overnight. One hour thereafter, an aqueous solution of the above peptide (0.3 ml/mouse) was administered orally. […] A dose-response curve was obtained from the dose of the peptide and inhibition rate of TG, and the 50% inhibition dose ID50 was calculated. Then, the activity of individual peptides was compared with each other.

[2] = system: pancreatin (artificial pancreatic juice); assay: In vitro stability against digestive enzymes, artificial gastric juice then artificial pancreatic juice; assay type: in vitro ADME; settings: for HPLC peak of the peptide after digestion: after digestion with artificial gastric and pancreatic juices; for Ratio of recovery: after pepsin 37° C. 4 hr, then pancreatin pH 8.0, 37° C., 2 hr, HPLC peak area, before treatment = 100
Procedure: as §1, §2, §3, §4, §5, §6, §7, §8, §9

male and female ICR mice = assay: Toxicological study, oral administration; assay type: in vivo; settings: 10 g/kg body weight or more (maximum possible dose)
Procedure: The peptide (VVYP) having the amino acid sequence shown in SEQ ID NO: 1 synthesized in Example 2 was administered orally to male and female ICR mice in an amount of 10 g/kg body weight or more (maximum possible dose).

Compound | HPLC peak of the peptide after digestion ([1]; after digestion with artificial gastric juice) | ID50 (dose which inhibits in vivo 50% of serum TG elevations) (serum TG levels) | Specific Activity (ratio to mg protein) (serum TG levels) | HPLC peak of the peptide after digestion [2] | Ratio of recovery [2] | Ratio of recovery [1] | Death (male and female ICR mice)
CC(C)C[C@H](NC(=O)[C@@H](NC(=O)[C@@H](N)C(C)C)[C@@H](C)O)C(=O)O [VTL, Val-Thr-Leu] (H-Val-Thr-Leu-OH) | disappeared | 0.05 mg protein/mouse | 448 |  |  |  | 
CC(C)[C@H](N)C(=O)N[C@H](C(=O)N[C@@H](Cc1ccc(O)cc1)C(=O)N1CCC[C@H]1C(=O)O)C(C)C [VVYP, Val-Val-Tyr-Pro] (H-VVYP-OH) |  |  | 6500 | remained | 101 | 108 | no death occurred
CC(C)[C@H](N)C(=O)N[C@@H](Cc1ccc(O)cc1)C(=O)N1CCC[C@H]1C(=O)O [VYP, Val-Tyr-Pro] (H-Val-Tyr-Pro-OH) |  | 0.02 mg protein/mouse | 1130 | remained | 109 | 108 | 
